Measurements from patent US20020169111A1, “Reversal of multidrug resistance in human colon carcinoma cells” (American Cyanamid Comany, priority 1998, published 2002).
Like-named read-outs stand apart in the source and are kept apart here.

Assays:
S1-M1-3.2 cells = settings: for Per Cent Survival with 3.2 μM mitoxantrone / Per Cent Survival Alone / Difference Score: S1-M1-3.2 cells; for Per Cent Survival Alone: 3 days; for Difference Score: survival alone minus survival with 3.2 μM mitoxantrone
How it was run: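 Cells grown in medium with 5% FBS received reversal agents at 0.1-80 μM (triplicate per dose), with or without the antitumor agent, plus reversal agent-only wells; survival by SRB assay. Difference Score = % survival with drug alone minus % survival with drug plus antitumor agent.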

S1-B1-20 cells = assay: Reversal of resistance in P-gp expressing cells, alone or with 21 μM bisantrene; type: cell-based, human; parameters: Difference Score: unit not given here; settings: for Per Cent Survival with 21 μM bisantrene / Per Cent Survival Alone / Difference Score: S1-B1-20 cells; for Difference Score: survival alone minus survival with 21 μM bisantrene
Procedure: To determine the specificity of FTC for non P-gp multidrug resistance, FTC was tested on S1-B1-20 cells which were selected for resistance to bisantrene and which express high levels of P-gp (Table 9)(Zhang, et al, Oncol. Res. 6291-301 (1994)). […] The 21 μM concentration of bisantrene is not inhibitory to the growth of the cells. Values shown are mean ± standard deviation from triplicate test wells.

P-gp expressing cells = settings: P-gp reversal; cited from earlier work

COc1ccc(C(C#N)(CCCCCN2CCc3cc(OC)c(OC)cc3C2)Sc2ccc(C)cc2)cc1OC (stereo not drawn) [α-(3,4-dimethoxyphenyl)-3,4-dihydro-6,7-dimethoxy-α-[(4-methylphenyl)thio]-2(1H)-isoquinolineheptanenitrile, reference compound]
Per Cent Survival with 3.2 μM mitoxantrone (S1-M1-3.2 cells; drug 0.1 μM): 98 ± 2 Per Cent | Per Cent Survival Alone (S1-M1-3.2 cells; drug 0.1 μM alone): 98 ± 2 Per Cent | Difference Score (S1-M1-3.2 cells; drug 0.1 μM): 0 | Per Cent Survival with 3.2 μM mitoxantrone (S1-M1-3.2 cells; drug 0.5 μM): 98 ± 0 Per Cent | Per Cent Survival Alone (S1-M1-3.2 cells; drug 0.5 μM alone): 100 ± 0 Per Cent | Difference Score (S1-M1-3.2 cells; drug 0.5 μM): 2 | Per Cent Survival with 3.2 μM mitoxantrone (S1-M1-3.2 cells; drug 1 μM): 99 ± 2 Per Cent | Per Cent Survival Alone (S1-M1-3.2 cells; drug 1 μM alone): 101 ± 1 Per Cent | Difference Score (S1-M1-3.2 cells; drug 1 μM): 2 | Per Cent Survival with 3.2 μM mitoxantrone (S1-M1-3.2 cells; drug 5 μM): 63 ± 8 Per Cent | Per Cent Survival Alone (S1-M1-3.2 cells; drug 5 μM alone): 78 ± 8 Per Cent | Difference Score (S1-M1-3.2 cells; drug 5 μM): 15 | Per Cent Survival with 3.2 μM mitoxantrone (S1-M1-3.2 cells; drug 10 μM): 36 ± 11 Per Cent | Per Cent Survival Alone (S1-M1-3.2 cells; drug 10 μM alone): 39 ± 18 Per Cent | Difference Score (S1-M1-3.2 cells; drug 10 μM): 3 | Per Cent Survival with 3.2 μM mitoxantrone (S1-M1-3.2 cells; drug 20 μM): 21 ± 10 Per Cent | Per Cent Survival Alone (S1-M1-3.2 cells; drug 20 μM alone): 21 ± 13 Per Cent | Difference Score (S1-M1-3.2 cells; drug 20 μM): 0 | Per Cent Survival with 3.2 μM mitoxantrone (S1-M1-3.2 cells; drug 40 μM): 16 ± 4 Per Cent | Per Cent Survival Alone (S1-M1-3.2 cells; drug 40 μM alone): 16 ± 5 Per Cent | Difference Score (S1-M1-3.2 cells; drug 40 μM): 0 | Per Cent Survival with 3.2 μM mitoxantrone (S1-M1-3.2 cells; drug 80 μM): 13 ± 2 Per Cent | Per Cent Survival Alone (S1-M1-3.2 cells; drug 80 μM alone): 13 ± 1 Per Cent | Difference Score (S1-M1-3.2 cells; drug 80 μM): 0 | reversal activity in S1-M1-3.2 cells (in words) (S1-M1-3.2 cells; with mitoxantrone): not reversed | Per Cent Survival with 21 μM bisantrene (S1-B1-20 cells; drug 0.1 μM): 92 ± 1 Per Cent | Per Cent Survival Alone (S1-B1-20 cells; drug 0.1 μM alone): 99 ± 4 Per Cent | Difference Score (S1-B1-20 cells; drug 0.1 μM): 7 | Per Cent Survival with 21 μM bisantrene (S1-B1-20 cells; drug 0.5 μM): 10 ± 0 Per Cent | Per Cent Survival Alone (S1-B1-20 cells; drug 0.5 μM alone): 97 ± 1 Per Cent | Difference Score (S1-B1-20 cells; drug 0.5 μM): 87 | Per Cent Survival with 21 μM bisantrene (S1-B1-20 cells; drug 1 μM): 4 ± 0 Per Cent | Per Cent Survival Alone (S1-B1-20 cells; drug 1 μM alone): 94 ± 2 Per Cent | Difference Score (S1-B1-20 cells; drug 1 μM): 90 | Per Cent Survival with 21 μM bisantrene (S1-B1-20 cells; drug 5 μM): 4 ± 0 Per Cent | Per Cent Survival Alone (S1-B1-20 cells; drug 5 μM alone): 90 ± 1 Per Cent | Difference Score (S1-B1-20 cells; drug 5 μM): 86 | Per Cent Survival with 21 μM bisantrene (S1-B1-20 cells; drug 10 μM): 4 ± 0 Per Cent | Per Cent Survival Alone (S1-B1-20 cells; drug 10 μM alone): 50 ± 1 Per Cent | Difference Score (S1-B1-20 cells; drug 10 μM): 46 | Per Cent Survival with 21 μM bisantrene (S1-B1-20 cells; drug 20 μM): 4 ± 0 Per Cent | Per Cent Survival Alone (S1-B1-20 cells; drug 20 μM alone): 14 ± 1 Per Cent | Difference Score (S1-B1-20 cells; drug 20 μM): 10 | Per Cent Survival with 21 μM bisantrene (S1-B1-20 cells; drug 40 μM): 4 ± 0 Per Cent | Per Cent Survival Alone (S1-B1-20 cells; drug 40 μM alone): 4 ± 0 Per Cent | Difference Score (S1-B1-20 cells; drug 40 μM): 0 | Per Cent Survival with 21 μM bisantrene (S1-B1-20 cells; drug 80 μM): 4 ± 0 Per Cent | Per Cent Survival Alone (S1-B1-20 cells; drug 80 μM alone): 4 ± 0 Per Cent | Difference Score (S1-B1-20 cells; drug 80 μM): 0 | reversal of resistance in P-gp positive S1-B1-20 cells (in words) (S1-B1-20 cells; bisantrene-selected): reversible | potency relative to verapamil (P-gp expressing cells): at least 10 fold
